The values that follow come from patent US11084783B2, “O-alkyl-benzylideneguanidine derivatives and therapeutic use for the treatment of disorders associated with an accumulation of misfolded proteins” (INFLECTIS BIOSCIENCE, priority 2014, dated 2021).

SMILES strings stand for the structures.

Common to all, as to format: cell-based
Assay [1] has as its system interferon-gamma injured rat oligodendrocytes. The experiment in a line: In vitro multiple sclerosis model: interferon-gamma injured rat oligodendrocytes co-cultured with neurons. As to conditions: interferon-gamma 70 U/ml, 48 H; total number of O4 cells. As to the method:
Neurons/OPC were cultured as previously describes by Yang et al. (2005 J Neurosci Methods;149(1) pp50-6) with modifications. Briefly, the full brain (without cerebellum) obtained from 17-day old rat embryos (Wistar, Janvier labs) were removed. The full brains were treated for 20 min at 37° C. with a trypsin-EDTA (Pan Biotech) solution at a final concentration of 0.05% trypsin and 0.02% EDTA. The dissociation was stopped by addition of Dulbecco's modified Eagle's medium (DMEM) with 4.5 g/liter of glucose (Pan Biotech), containing DNAse I grade II (final concentration 0.5 mg/ml; Pan Biotech, Batch: h140508) and 10% fetal calf serum (FCS; Invitrogen, Batch: 41Q7218K). Cells were mechanically dissociated by three forced passages through the tip of a 10-ml pipette. Cells were then centrifuged at 515 g for 10 min at 4° C. The supernatant was discarded, and the pellet was resuspended in a defined culture medium consisting of Neurobasal medium (Invitrogen, Batch: 1636133) with a 2% solution of B27 supplement (Invitrogen, Batch: 1660670), 2 mmol/liter of L-glutamine (Pan Biotech), 2% of PS solution, and, 1% of FCS and 10 ng/ml of platelet derived growth factor (PDGF-AA, Batch: H131205). The cells were seeded at a density of 20 000 cells per well in 96 well plates precoated with PLL (BD corning, Batch: 6614022) and laminine (Sigma, Batch: 083M4034V). The plates were maintained at 37° C. into a humidified incubator, in an atmosphere of air (95%)-CO2 (5%). Half of the medium was changed every 2 days with fresh medium. On days 18, test compounds were pre-incubated 1 hour before interferon-gamma (70 U/ml, 48H, R&D system, Batch: AAL2214081) application.
On day 18 of culture, test compounds (4 concentrations) were solved in culture medium and then pre-incubated with oligodendrocyte co-cultured with neurons for 1 hour before the interferon-gamma (70 U/ml, 48H) application. […]
For each condition, 30 pictures per well were taken using ImageXpress (Molecular Device) with 20× magnification. […] All values were expressed as mean +/−SEM (s.e.mean) (n=6 wells per condition).

Another assay deals with INS1 insulinoma cell. Nature of the assay: INS1 cell line cytoprotection from ER stress (tunicamycin). The settings on record: 6 hour exposure to tunicamycin 2.5 μg/mL, different concentrations, viability 72h. Here is the method: Cells were plated in 96 well plates at a density of 0.5.10^6 cells/mL for Min6 cell line, 0,4.10^6 cells/mL for INS1 cell line the day before the treatment. ER stress was elicited by addition of 2.5 μg/mL tunicamycin (Sigma Aldrich) together with phosphatases inhibitors. Media were changed 6h later with fresh media and the cytoprotection was maintained by the addition of phosphatases inhibitors. Cell viability was assessed by measuring the reduction of WST-8 into formazan using Cell Counting Kit-8 (Sigma) according to the supplier's recommendation, 72h after tunicamycin treatment.

In assay [2] the test system is mouse embryonic fibroblasts lipofected with poly I:C. Nature of the assay: In vitro inflammation/infection model: poly I:C induced mouse embryonic fibroblasts. The settings on record: 25 μM, 6h, IFN-beta ELISA in culture supernatants. Here is the method:
Mouse Embryonic Fibroblasts (MEFs) were lipofected with poly I:C and treated with […] compounds of the invention (25 μM) for 6h. After 6h of culture, elF2alpha-phosphorylation (elF2a-P) and PPP1R15A (GADD34) expression was monitored by western blotting, while type-1 Interferon(IFN)-beta production was quantified in culture supernatants by ELISA. Control (nt) and poly I:C/DMSO are respectively negative and positive controls. Poly I:C (polyinosinic:polycytidylic acid or polyinosinic-polycytidylic acid sodium salt) is an immunostimulant used to simulate viral infections. Poly I:C which is structurally similar to double-stranded RNA, is known to interact with toll-like receptor 3 which is expressed in the intracellular compartments of B-cells and dendritic cells. Guanabenz (25 μM) was used as reference inhibitory compound.
MEFs were cultured in DMEM, 10% FCS (HyClone, Perbio), 100 units/ml penicillin, 100 μg/ml streptomycin, 2 mM glutamine, 1× MEM non-essential amino acids and 50 μM 2-mercaptoethanol. MEFS were treated for the indicated time with 10 μg/ml poly I:C (InvivoGen) in combination with lipofectamine 2000 (Invitrogen).
Cells were lysed in 1% Triton X-100, 50 mM Hepes, 10 mM NaCl, 2.5 mM MgCl2, 2 mM EDTA, 10% glycerol, supplemented with Complete Mini Protease Inhibitor Cocktail Tablets (Roche). Protein quantification was performed using the BCA Protein Assay (Pierce). 25-50 μg of Triton X-100-soluble material was loaded on 2%-12% gradient or 8% SDS-PAGE before immunoblotting and chemi-luminescence detection (SuperSignal West Pico Chemi-luminescent Substrate, Pierce). Rabbit polyclonal antibodies recognizing GADD34 (C-19) were from Santa Cruz Biotechnology and anti-elF2alpha[pS^52] were from Invitrogen.
IFN-beta quantification in culture supernatant was performed using the Mouse Interferon Beta ELISA kit (PBL Interferon Source) according to manufacturer instructions.
Normal response of MEFs to poly I:C is characterized by PPP1R15A expression, increase in elF2alpha-P (variable in time and related to the levels PPP1R15A expression) mediated by PKR activation and type-I IFN production (range 500 to 700 pg/ml). Knock out PPP1R15A MEFs are unable to produce this cytokine in response to poly I:C.
The potency of compounds of the invention to inhibit PPP1R15A was evaluated by measuring the increase of elF2alpha phosphorylation, the decrease of PPP1R15A expression due to its own pharmacological inhibition resulting in general protein synthesis inhibition and type-I IFN production.
For orientation: An ELISA detects its analyte on a solid surface through an enzyme-linked reagent.

With `CCONC(=N)N/N=C/c1c(F)cccc1Cl` [Compound 17, 2-(2-chloro-6-fluorobenzylidene)-N-ethoxyhydrazinecarboximidamide], the “protection of interferon-gamma injured rat oligodendrocytes (FIG. 2)” value (from here on “protection”) in assay [1] was “dose dependent protection”. In addition, the “prevention of INS1 insulinoma cell death (FIG. 8)” value (shortened to “prevention … (FIG. 8)”) with INS1 insulinoma cell is recorded as “prevent INS1 insulinoma cell death”. The “prevention of type-I IFN production (FIG. 9)” value (shortened to “prevention … (FIG. 9)”) in assay [2] was “prevent type-I IFN production”.

As for `CCO/N=C(\N)N/N=C/c1ccccc1Cl` [Compound 10, 2-(2-chlorobenzylidene)-N′-ethoxyhydrazinecarboximidamide], the “prevention … (FIG. 9)” value in assay [2] is recorded as “prevent type-I IFN production”.

For the compound `CCCONC(=N)N/N=C/c1ccccc1Cl` [Compound 12, 2-(2-chlorobenzylidene)-N-propoxyhydrazinecarboximidamide], in assay [1], the “protection” value was “dose dependent protection”. The “prevention … (FIG. 8)” value in the assay on INS1 insulinoma cell is “prevent INS1 insulinoma cell death”. The “prevention … (FIG. 9)” value in assay [2] is reported as “prevent type-I IFN production”.

On to `CCONC(=N)N/N=C/c1c(Cl)cccc1Cl` [Compound 11, 2-(2,6-dichlorobenzylidene)-N-ethoxyhydrazinecarboximidamide], for which the “protection” value in assay [1] is given as “dose dependent protection”. Further, in the assay with INS1 insulinoma cell, the “prevention … (FIG. 8)” value is given as “prevent INS1 insulinoma cell death”. The “prevention … (FIG. 9)” value in assay [2] was “prevent type-I IFN production”.
